Source: ChEMBL document CHEMBL3112544, “Discovery of ZAP70 inhibitors by high-throughput docking into a conformation of its kinase domain generated by molecular dynamics” (Bioorg Med Chem Lett, 2013)
Activity calls are given as the source filed them. The calls are words filed in the database; no cut-off is given here.

Assays:
[1] = molecular target: T1, Tyrosine-protein kinase ZAP-70 (Homo sapiens) (UniProt P43403); assay: Inhibition of full-length ZAP70 (unknown origin) at 20 uM by radioactive ATP method
T1 sequence (whole entry): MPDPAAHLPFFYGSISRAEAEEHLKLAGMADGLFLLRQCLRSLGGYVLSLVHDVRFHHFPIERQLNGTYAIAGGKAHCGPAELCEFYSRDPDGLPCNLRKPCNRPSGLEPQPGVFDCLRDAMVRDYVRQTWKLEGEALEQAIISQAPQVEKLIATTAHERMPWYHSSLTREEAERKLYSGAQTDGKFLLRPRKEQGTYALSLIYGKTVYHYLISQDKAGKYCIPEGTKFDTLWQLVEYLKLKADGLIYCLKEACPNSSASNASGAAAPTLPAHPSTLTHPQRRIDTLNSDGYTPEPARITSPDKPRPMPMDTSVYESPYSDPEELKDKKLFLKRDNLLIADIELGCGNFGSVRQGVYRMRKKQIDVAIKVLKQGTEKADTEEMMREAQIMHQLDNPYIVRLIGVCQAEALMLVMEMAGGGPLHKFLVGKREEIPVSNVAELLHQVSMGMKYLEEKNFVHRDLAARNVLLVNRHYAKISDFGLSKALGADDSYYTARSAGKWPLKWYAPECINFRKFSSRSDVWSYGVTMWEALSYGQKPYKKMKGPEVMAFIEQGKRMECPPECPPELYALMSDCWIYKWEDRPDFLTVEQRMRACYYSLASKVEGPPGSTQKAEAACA

[2] = molecular target: T2, Tyrosine-protein kinase ZAP-70 (Homo sapiens, UniProt P43403); assay: Inhibition of full-length ZAP70 (unknown origin) by radioactive ATP method
T2 sequence (P43403 whole entry): T1 sequence (whole entry)

[3] = molecular target: T3, Tyrosine-protein kinase SYK (Homo sapiens, UniProt P43405); assay: Inhibition of SYK (unknown origin) by radioactive ATP method
[4] = molecular target: T4, Tyrosine-protein kinase JAK2 (Homo sapiens, UniProt O60674); assay: Inhibition of JAK2 (unknown origin) by radioactive ATP method
T4 sequence (O60674 whole entry): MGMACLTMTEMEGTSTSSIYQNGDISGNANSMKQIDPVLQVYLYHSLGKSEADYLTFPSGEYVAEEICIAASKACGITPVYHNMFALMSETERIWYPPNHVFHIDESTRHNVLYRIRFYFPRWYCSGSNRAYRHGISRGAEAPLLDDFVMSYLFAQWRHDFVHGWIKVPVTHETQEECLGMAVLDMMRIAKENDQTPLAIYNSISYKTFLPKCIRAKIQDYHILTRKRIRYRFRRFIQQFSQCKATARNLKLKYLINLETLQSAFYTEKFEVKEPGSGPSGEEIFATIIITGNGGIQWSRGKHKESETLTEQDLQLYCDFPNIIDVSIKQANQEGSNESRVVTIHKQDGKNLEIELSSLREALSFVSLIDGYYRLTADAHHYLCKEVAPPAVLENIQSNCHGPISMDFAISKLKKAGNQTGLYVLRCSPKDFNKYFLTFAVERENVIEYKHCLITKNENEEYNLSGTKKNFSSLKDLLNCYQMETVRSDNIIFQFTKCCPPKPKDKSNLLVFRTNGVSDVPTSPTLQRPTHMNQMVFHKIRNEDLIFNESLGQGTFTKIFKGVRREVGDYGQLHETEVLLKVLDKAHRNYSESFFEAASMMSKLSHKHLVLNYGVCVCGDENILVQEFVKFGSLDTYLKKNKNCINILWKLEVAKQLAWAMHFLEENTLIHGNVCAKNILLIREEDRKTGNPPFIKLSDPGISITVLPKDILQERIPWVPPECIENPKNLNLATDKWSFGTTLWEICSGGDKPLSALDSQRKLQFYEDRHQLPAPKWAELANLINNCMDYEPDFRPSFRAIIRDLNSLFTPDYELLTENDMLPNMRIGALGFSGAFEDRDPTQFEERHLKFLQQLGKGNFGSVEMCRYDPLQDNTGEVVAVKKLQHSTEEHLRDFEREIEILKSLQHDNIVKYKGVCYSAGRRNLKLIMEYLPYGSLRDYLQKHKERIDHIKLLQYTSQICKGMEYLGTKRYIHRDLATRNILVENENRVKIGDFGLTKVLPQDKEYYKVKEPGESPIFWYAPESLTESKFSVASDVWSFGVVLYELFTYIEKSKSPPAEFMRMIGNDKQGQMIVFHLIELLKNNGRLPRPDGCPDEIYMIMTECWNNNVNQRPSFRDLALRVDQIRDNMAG

[5] = molecular target: T3, Tyrosine-protein kinase SYK; assay: Inhibition of SYK (unknown origin) at 20 uM by radioactive ATP method
[6] = molecular target: T4, Tyrosine-protein kinase JAK2; assay: Inhibition of JAK2 (unknown origin) at 20 uM by radioactive ATP method

inhibition [1] | SMILES | further results
inactive | Nc1ccc(C(=O)N2CCc3[nH]nc(-c4cc(F)cc(F)c4)c3C2)cn1 | –
inactive | CC(C)c1ccc(-c2c(C#N)c(N)nc3sc(C(N)=O)c(N)c23)cc1 | –
– | O=C1NC(=S)N/C1=C1\C(=O)N(Cc2ccccc2Cl)c2ccccc21 | IC50 [2]: 21 µM; IC50 [3]: 168 µM
inactive | N#C/C(=C1/C(=O)Nc2ccccc21)c1nc2ccccc2[nH]1 | –
inactive | O=C1NC(=O)N(c2ccccc2F)C(=O)/C1=C\c1cccn1-c1ccccc1 | –
inactive | O=c1[nH]c2ccc(S(=O)(=O)NC3CC3)cc2c2ccccc12 | –
inactive | N[C@@H](CO)C(=O)N1CCc2[nH]nc(-c3ccc(F)c(F)c3)c2C1 | –
inactive | O=C1NC(=O)N(c2cccc(F)c2)C(=O)/C1=C\c1cccn1-c1ccccc1 | –
– | COc1ccc(Nc2nc(N3CCOCC3)c3nc[nH]c3n2)cc1OC | IC50 [2]: 62 µM; IC50 [3]: 12 µM; IC50 [4]: 0.11 µM
inactive | Cc1ccc2[nH]c3c(c2c1)CCC1C3=NNC1c1ccccc1 (stereo unspecified) | –
– | CCOc1ccc(Nc2nc(N)c(C(=O)c3cccc(OC)c3)s2)cc1 | IC50 [2]: 29 µM; IC50 [3]: > 200 µM
– | O=C1Nc2ccc3c(oc4ccccc43)c2C1=NNc1ccncc1 | IC50 [2]: 8 µM; IC50 [3]: 26 µM; IC50 [4]: 11 µM
inactive | O=C(c1ccc2[nH]c(=O)[nH]c2c1)N1CCc2[nH]nc(-c3ccccc3)c2C1 | –
inactive | Cc1ccc(-c2n[nH]c3c2CN(c2ncc(F)c(NCCO)n2)CC3)cc1 | –
inactive | Oc1ccc(-c2ccnc3cc(Cl)ccc23)cc1CN1CCCCC1 | –
inactive | CC(=O)Nc1ccc(OS(=O)(=O)c2ccc3[nH]c(=O)[nH]c3c2)cc1 | –

inhibition [1] | SMILES | further results
inactive | Cc1cc(NC(=O)c2sc(Nc3ccccc3)nc2N)on1 | –
43% | Cc1cc(/C=C2/C(=O)NN(c3ccccc3)C2=O)c(C)n1-c1cccc(O)c1 | inhibition [5]: 16%
– | O=C1Nc2ccccc2/C1=C(\c1ccccc1)c1nc2ccccc2[nH]1 | IC50 [2]: 26 µM; IC50 [3]: 40 µM
49% | O=C1NN(c2ccccc2)C(=O)/C1=C/c1ccc(-c2ccccc2)o1 | inhibition [5]: 17%
inactive | Clc1cccc(C2C=C(c3cccnc3)Nc3nc4ccccc4n32)c1 (stereo unspecified) | –
inactive | COc1cccc(-c2ccnc3[nH]n(-c4ccccc4)c(=O)c23)c1 | –
inactive | COc1ccc(NC2=NC3NN=C(N)C3C3=C2CN(C)CC3)cc1 (stereo unspecified) | –
inactive | O=C1Nc2ccc(S(=O)(=O)Cc3ccc4ccccc4c3)c3cccc1c23 | –
– | O=C1NN(c2ccccc2)C(=O)/C1=C\c1cc(Cl)ccc1OCc1ccccc1 | IC50 [2]: 22 µM; IC50 [4]: 15 µM; inhibition [5]: 16%
– | O=C1NN(c2ccccc2)C(=O)/C1=C/c1ccc(-c2ccccc2Cl)o1 | IC50 [2]: 14 µM; IC50 [3]: 57 µM
46% | O=C1NN(c2ccc(F)cc2)C(=O)/C1=C\c1cccc(OCc2ccccc2F)c1 | inhibition [6]: 22%; inhibition [5]: 16%
inactive | O=C1NC(=O)N(c2ccc(F)cc2)C(=O)/C1=C\c1cccn1-c1ccc(O)cc1 | –
inactive | CCn1c(N)c(-c2csc(-c3ccc(O)cc3)n2)c(=O)[nH]c1=O | –
inactive | O=C1N/C(=C/c2ccc(O)cc2)C(=O)N1c1ccccc1 | –
inactive | COc1ccc(/C=C2/NC(=O)N(c3cccc(Cl)c3)C2=O)cc1O | –
inactive | O=C(c1ccc2[nH]cnc2c1)N1CCc2[nH]nc(-c3cccc(Cl)c3)c2C1 | –
